# What was measured:
# [1] = system: Psl exopolysaccharide (P. aeruginosa PAO1 and isogenic mutants); assay: Indirect ELISA / FACS binding to PAO1 and isogenic mutants; parameters: species or system Pseudomonas aeruginosa; settings: for binding (indirect ELISA): FIG. 3A; for binding (ELISA): FIG. 3E
# From the text: In addition, duplication of VH CDR3 loop sequences in the libraries (a measure of clonal enrichment during selection), was also found to be higher in the patient library, reaching 88-92%, compared to 15-25% in the naïve library at round 3 (FIG. 1D). Individual scFv phage from affinity selections were next screened by ELISA for reactivity to P. aeruginosa heterologous serotype strains (FIG. 1E). ELISA plates (Nunc; MAXISORP™) were coated with P. aeruginosa strains from overnight cultures as described (DiGiandomenico, A., et al., Infect Immun 72, 7012-7021 (2004)). Diluted antibodies were added to blocked plates for 1 hour, washed, and treated with HRP-conjugated anti-human secondary antibodies for 1 hour followed by development and analysis as described (Ulbrandt, N. D., et al., J Virol 80, 7799-7806 (2006)). The dominant species of phage obtained from whole cell selections with both libraries yielded serotype specific reactivity (data not shown).
# For IgG expression, the VH and VL chains of selected antibodies were cloned into human IgG1 expression vectors, co-expressed in HEK293 cells, and purified by protein A affinity chromatography as described (Persic, L., et al., Gene 187, 9-18 (1997)). Human IgG1 antibodies made with the variable regions from these selected serotype independent phage were confirmed for P. aeruginosa specificity and prioritized for subsequent analysis by whole cell binding to dominant clinically relevant serotypes by FACS analysis (FIG. 1F), since this method is more stringent than ELISA. For the flow cytometry based binding assays mid-log phase P. aeruginosa strains were concentrated in PBS to an OD650 of 2.0. After incubation of antibody (10 μg/mL) and bacteria (˜1×10^7 cells) for 1 hr at 4° C. with shaking, washed cells were incubated with an ALEXA FLUOR 647® goat anti-human IgG antibody (Invitrogen, Carlsbad, Calif.) for 0.5 hr at 4° C. Washed cells were stained with BACLIGHT™ green bacterial stain as recommended (Invitrogen, Carlsbad, Calif.). Samples were run on a LSR II flow cytometer (BD Biosciences) and analyzed using BD FacsDiva (v. 6.1.3) and FlowJo (v. 9.2; TreeStar).
# This example describes identification of the target of anti-P. aeruginosa antibodies derived from phenotypic screening. Target analysis was performed to test whether the serotype independent antibodies targeted protein or carbohydrate antigens. […] Isogenic mutants were constructed in genes responsible for 0-antigen, alginate, and LPS core biosynthesis; wbpL (O-antigen-deficient); wbpL/algD (O-antigen and alginate deficient); rmlC (O-antigen-deficient and truncated outer core); and galU (O-antigen-deficient and truncated inner core). P. aeruginosa mutants were constructed based on the allele replacement strategy described by Schweizer (Schweizer, H. P., Mol Microbiol 6, 1195-1204 (1992); Schweizer, H. D., Biotechniques 15, 831-834 (1993)). Vectors were mobilized from E. coli strain 517.1 into P. aeruginosa strain PAO1; recombinants were isolated as described (Hoang, T. T., et al., Gene 212, 77-86 (1998)). Gene deletion was confirmed by PCR. P. aeruginosa mutants were complemented with pUCP30T-based constructs harboring wild type genes. […] The rmlC and galU genes were recently shown to be required for biosynthesis of the Psl exopolysaccharide, a repeating pentasaccharide polymer consisting of D-mannose, L-rhamnose, and D-glucose. Cam-003 binding to an isogenic pslA knockout PAO1ΔpslA, was tested, as pslA is required for Psl biosynthesis (Byrd, M. S., et al., Mol Microbiol 73, 622-638 (2009)). Binding of Cam-003 to PAO1ΔpslA was abolished when tested by ELISA (FIG. 3B) and FACS (FIG. 3C), while the LPS molecule in this mutant was unaffected (FIG. 3D). Binding of Cam-003 was restored in a PAO1ΔwbpL/algD/pslA triple mutant complemented with pslA (FIG. 3E) as was the ability of Cam-003 to mediate opsonic killing to complemented PAO1ΔpslA in contrast to the mutant (FIGS. 3F and 3G). […]
# [2] = system: P. aeruginosa strains (PAO1, 33356, 6294, 6077, 6206, PA103A); assay: Acute pneumonia model in mice, survival; type: in vivo, Pseudomonas aeruginosa; settings: for protection from challenge: 45 and 15 mg/kg; for survival compared to controls: 45, 15, 5 mg/kg 24 hours before infection
# Method: Antibodies or PBS were administered 24 hours before infection in each model. P. aeruginosa acute pneumonia, keratitis, and thermal injury infection models were performed as described (DiGiandomenico, A., et al., Proc Natl Acad Sci USA 104, 4624-4629 (2007)), with modifications. In the acute pneumonia model, BALB/c mice (The Jackson Laboratory) were infected with P. aeruginosa strains suspended in a 0.05 ml inoculum. In the thermal injury model, CF-1 mice (Charles River) received a 10% total body surface area burn with a metal brand heated to 92° C. for 10 seconds. Animals were infected subcutaneously with P. aeruginosa strain 6077 at the indicated dose. For organ burden experiments, acute pneumonia was induced in mice followed by harvesting of lungs, spleens, and kidneys 24 hours post-infection for determination of CFU.
# The in vivo effect of administration of an anti-PcrV antibodies was studied in mice using an acute pneumonia model. Groups of mice were treated with either increasing concentrations of the V2L2 antibody, a positive control anti-PcrV antibody (mAb166), or a negative control (R347), as shown in FIG. 13 (A-B). Groups of mice were also treated with either increasing concentrations of the V2L2 antibody, the PcrV antibody PcrV-02, or a negative control (R347), as shown in FIG. 13 (C-D). Twenty-four hours after treatment, all mice were infected with 5×10^7 CFU (C) Pseudomonas aeruginosa 6294 (06) or (D) PA103A (O11).
# Groups of mice were treated with either increasing concentrations of the 11A6, 3G5 or V2L7, the same concentrations of 29D2, 1F3, 1E6, V2L2, LE10, SH3, 4A8, 2H3, or 21F1, increasing concentrations of the 29D2, increasing concentrations of the V2L2, the PcrV antibody PcrV-02, or a negative control (R347), as shown in FIG. 13 (E-H). Mice were injected intraperitoneally (IP) with mAbs 24 hours prior to intranasal infection with Pseudomonas strain 6077 (1×10^6 CFU/animal).
substance,measurement,setting,value
"Cam-003: anti-Psl human IgG1 monoclonal antibody; VH SEQ ID NO:1, VL SEQ ID NO:2",reactivity to LPS purified from PAO1,[1],not observed
same,binding (indirect ELISA),[1]; PAO1 rmlC and galU mutants,abolished
same,binding (indirect ELISA),[1]; PAO1 wbpL or wbpL/algD double mutant,unaffected
same,binding (ELISA and FACS),"[1]; PAO1ΔpslA, FIG. 3B-C",abolished
same,binding (ELISA),[1]; PAO1ΔwbpL/algD/pslA triple mutant complemented with pslA,restored
same,binding (ELISA),[1]; Pel exopolysaccharide mutant,unaffected
same,"survival vs. R347, Log-rank test P","[2]; 6077 1×10^6 CFU, 5 mg/kg, FIG. 6D",0.0001
same,"survival vs. R347, Log-rank test P","[2]; 6294 7×10^6 CFU, 5 mg/kg, FIG. 6C",0.0212
same,"survival vs. R347, Log-rank test P","[2]; 6294 7×10^6 CFU, 15 mg/kg, FIG. 6C",0.0019
same,"survival vs. R347, Log-rank test P","[2]; 6294 7×10^6 CFU, 45 mg/kg, FIG. 6C",0.0007
same,"survival vs. R347, Log-rank test P","[2]; 33356 3×10^7 CFU, 5 mg/kg, FIG. 6B",0.0373
same,"survival vs. R347, Log-rank test P","[2]; 33356 3×10^7 CFU, 15 mg/kg, FIG. 6B",0.0012
same,"survival vs. R347, Log-rank test P","[2]; 33356 3×10^7 CFU, 45 mg/kg, FIG. 6B",0.0012
same,"survival vs. R347, Log-rank test P","[2]; PAO1 1.6×10^7 CFU, 5 mg/kg, FIG. 6A",0.0033
same,"survival vs. R347, Log-rank test P","[2]; PAO1 1.6×10^7 CFU, 15 mg/kg, FIG. 6A",0.0003
same,protection from challenge,"[2]; cytotoxic strain 6077, FIG. 6D",complete protection
same,survival,"[2]; strain 6077, 5 mg/kg, FIG. 6D",90%
same,survival compared to controls,"[2]; strain 6294, FIG. 6C",significant concentration-dependent survival
same,survival,"[2]; strain 33356, 5 mg/kg, FIG. 6B",80%
same,protection from challenge,"[2]; strain 33356, FIG. 6B",complete protection
same,survival compared to controls,"[2]; strain PAO1, FIG. 6A",significant concentration-dependent survival

# Reference: US11203633B2, “Polynucleotides encoding antibodies or antigen binding fragments thereof that bind pseudomonas perv” (priority 2011, dated 2021)
